Measurements: patent publication US8173841B2, “Tetrahydro-naphthalene derivatives” (Xention Limited, priority 2003, dated 2012)

Columns and labels:
human VR1 = molecular target: T1, human VR1 (Homo sapiens, UniProt Q8NER1); test: Capsaicin-induced Ca2+ influx in the human VR1-transfected CHO cell line (Assay 1); type: cell-based; conditions: human VR1-CHOluc9aeq cells, stimulation with 10 nM capsaicin, Fluo-3 AM / FDSS-3000; compounds of purity about 40 to 90%; read-out: Activity Class (IC50 of capsaicin-induced Ca2+ influx)
T1 construct: expressed in transfected cells
T1 sequence (Q8NER1 whole entry): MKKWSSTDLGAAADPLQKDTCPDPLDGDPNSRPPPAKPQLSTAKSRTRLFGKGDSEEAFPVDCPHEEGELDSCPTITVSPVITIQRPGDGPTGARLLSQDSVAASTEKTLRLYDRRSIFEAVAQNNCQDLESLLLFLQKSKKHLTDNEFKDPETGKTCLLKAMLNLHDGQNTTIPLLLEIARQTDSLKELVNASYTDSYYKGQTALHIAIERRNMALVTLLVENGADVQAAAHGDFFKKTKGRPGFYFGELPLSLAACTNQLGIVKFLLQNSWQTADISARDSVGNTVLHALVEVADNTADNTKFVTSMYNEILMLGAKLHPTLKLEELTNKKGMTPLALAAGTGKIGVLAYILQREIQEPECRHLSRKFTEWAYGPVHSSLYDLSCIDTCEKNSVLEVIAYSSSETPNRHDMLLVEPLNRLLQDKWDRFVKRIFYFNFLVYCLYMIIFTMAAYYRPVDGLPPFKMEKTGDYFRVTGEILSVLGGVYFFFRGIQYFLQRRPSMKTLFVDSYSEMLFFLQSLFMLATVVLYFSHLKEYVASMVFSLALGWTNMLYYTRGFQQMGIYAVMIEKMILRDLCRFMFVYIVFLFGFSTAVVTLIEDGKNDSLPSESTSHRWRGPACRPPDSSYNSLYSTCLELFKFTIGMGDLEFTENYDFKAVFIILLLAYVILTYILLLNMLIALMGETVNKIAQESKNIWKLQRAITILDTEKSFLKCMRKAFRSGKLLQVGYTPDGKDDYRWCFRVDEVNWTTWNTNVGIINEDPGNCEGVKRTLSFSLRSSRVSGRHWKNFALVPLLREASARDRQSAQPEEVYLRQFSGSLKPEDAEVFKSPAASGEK
Text: [Measurement of Capsaicin-Induced Ca^2+ Influx in the Human VR1-Transfected CHO Cell Line] (Assay 1)
(1) Establishment of the Human VR1-CHOluc9aeq Cell Line
Human vanilloid receptor (hVR1) cDNA was cloned from libraries of axotomized dorsal root ganglia (WO 00/29577). The cloned hVR1 cDNA was constructed with pcDNA3 vector and transfected into a CHOluc9aeq cell line. The cell line contains aequorin and CRE-luciferase reporter genes as read-out signals. The transfectants were cloned by limiting dilution in selection medium (DMEM/F12 medium (Gibco BRL) supplemented with 10% FCS, 1.4 mM Sodium pyruvate, 20 mM HEPES, 0.15% Sodium bicarbonate, 100 U/ml penicillin, 100 μg/ml streptomycin, 2 mM glutamine, non-essential amino acids and 2 mg/ml G418). Ca^2+ influx was examined in the capsaicin-stimulated clones. A high responder clone was selected and used for further experiments in the project. The human VR1-CHOluc9aeq cells were maintained in the selection medium and passaged every 3-4 days at 1−2.5×10^5 cells/flask ([…]).
(2) Measurement of Ca^2+ influx using FDSS-3000
Human VR1-CHOluc9aeq cells were suspended in a culture medium which is the same as the selection medium except for G418 and seeded at a density of 1,000 cells per well into 384-well plates (black walled clear-base/Nalge Nunc International). Following the culture for 48 hrs the medium was changed to 2 μM Fluo-3 AM (Molecular Probes) and 0.02% Puronic F-127 in assay buffer (Hank's balanced salt solution (HBSS), 17 mM HEPES (pH7.4), 1 mM Probenecid, 0.1% BSA) and the cells were incubated for 60 min at 25° C. After washing twice with assay buffer the cells were incubated with a test compound or vehicle for 20 min at 25° C. Mobilization of cytoplasmic Ca^2+ was measured by FDSS-3000 (λex=488 nm, λem=540 nm/Hamamatsu Photonics) for 60 sec after the stimulation with 10 nM capsaicin. Integral R was calculated and compared with controls.
The data corresponds to the compounds as yielded by solid phase synthesis and thus to levels of purity of about 40 to 90%. For practical reasons, the compounds are grouped in four classes of activity as follows: IC50=A (< or =) 0.1 μM<B (< or =) 0.5 μM<C (< or =) 1 μM<D

| Compound | IC50 (human VR1) | melting point |
| --- | --- | --- |
| Cc1ccc(-c2cccc(NC(=O)Nc3cccc4c3CC(O)CC4)c2)cc1 (centres unmarked) [Example 1-1, N-(7-Hydroxy-5,6,7,8-tetrahydronaphthalen-1-yl)-N′-(4′-methylbiphenyl-3-yl)urea] | < 100 nM | 217 to 219 °C |
| CCOC(=O)c1ccc(-c2cccc(NC(=O)Nc3cccc4c3CC(O)CC4)c2)cc1 (centres unmarked) [Example 1-2] | < 100 nM | 198 to 200 °C |
| O=C(Nc1cccc(-c2ccc(Cl)c(F)c2)c1)Nc1cccc2c1CC(O)CC2 (centres unmarked) [Example 1-3] | < 100 nM | 94 to 96 °C |
| O=C(Nc1cccc(-c2ccc(C(=O)O)cc2)c1)Nc1cccc2c1CC(O)CC2 (centres unmarked) [Example 1-4] | < 100 nM | 281 to 284 °C |
| O=C(Nc1cccc(-c2ccc(F)cc2F)c1)Nc1cccc2c1CC(O)CC2 (centres unmarked) [Example 1-5] | < 100 nM | 187 to 189 °C |
| CCOC(=O)c1cccc(-c2cccc(NC(=O)Nc3cccc4c3CC(O)CC4)c2)c1 (centres unmarked) [Example 1-6] | < 100 nM | 142 to 144 °C |
| O=C(Nc1cccc(-c2ccc(C(F)(F)F)cc2)c1)Nc1cccc2c1CC(O)CC2 (centres unmarked) [Example 1-7] | < 100 nM | – |
| O=C(Nc1cccc(-c2ccccc2Cl)c1)Nc1cccc2c1CC(O)CC2 (centres unmarked) [Example 1-8] | < 100 nM | – |
| O=C(Nc1cccc(-c2ccccc2C(F)(F)F)c1)Nc1cccc2c1CC(O)CC2 (centres unmarked) [Example 1-9] | < 100 nM | – |
| CSc1ccc(-c2cccc(NC(=O)Nc3cccc4c3CC(O)CC4)c2)cc1 (centres unmarked) [Example 1-10] | < 100 nM | – |
| O=C(Nc1cccc(-c2cc(F)cc(F)c2)c1)Nc1cccc2c1CC(O)CC2 (centres unmarked) [Example 1-11] | < 100 nM | – |
| Cc1cc(C)cc(-c2cccc(NC(=O)Nc3cccc4c3CC(O)CC4)c2)c1 (centres unmarked) [Example 1-12] | < 100 nM | 221 °C |
| COc1cccc(-c2cccc(NC(=O)Nc3cccc4c3CC(O)CC4)c2)c1 (centres unmarked) [Example 1-13] | < 100 nM | 204 °C |
| COc1ccc(-c2cccc(NC(=O)Nc3cccc4c3CC(O)CC4)c2)cc1 (centres unmarked) [Example 1-14] | < 100 nM | 203 °C |
| COc1ccc(OC)c(-c2cccc(NC(=O)Nc3cccc4c3CC(O)CC4)c2)c1 (centres unmarked) [Example 1-15] | < 100 nM | 190 °C |
| O=C(Nc1cccc(-c2ccc(F)cc2)c1)Nc1cccc2c1CC(O)CC2 (centres unmarked) [Example 1-16] | < 100 nM | 228 °C |
| O=C(Nc1cccc(-c2ccc(F)c(F)c2)c1)Nc1cccc2c1CC(O)CC2 (centres unmarked) [Example 1-17] | < 100 nM | 216 °C |
| O=C(Nc1cccc(-c2cccc(Cl)c2)c1)Nc1cccc2c1CC(O)CC2 (centres unmarked) [Example 1-18] | < 100 nM | 209 °C |
| O=C(Nc1cccc(-c2cc(Cl)cc(Cl)c2)c1)Nc1cccc2c1CC(O)CC2 (centres unmarked) [Example 1-19] | < 100 nM | 221 °C |
| O=C(Nc1cccc(-c2cccc(Cl)c2Cl)c1)Nc1cccc2c1CC(O)CC2 (centres unmarked) [Example 1-20] | < 100 nM | 204 °C |
| O=C(Nc1cccc(-c2ccc(Cl)cc2Cl)c1)Nc1cccc2c1CC(O)CC2 (centres unmarked) [Example 1-21] | < 100 nM | 208 °C |
| O=C(Nc1cccc(-c2cc(Cl)ccc2Cl)c1)Nc1cccc2c1CC(O)CC2 (centres unmarked) [Example 1-22] | < 100 nM | 209 °C |
| O=C(Nc1cccc(-c2cccc(C(F)(F)F)c2)c1)Nc1cccc2c1CC(O)CC2 (centres unmarked) [Example 1-23] | < 100 nM | 210 °C |
| O=C(Nc1cccc(-c2cccc(OC(F)(F)F)c2)c1)Nc1cccc2c1CC(O)CC2 (centres unmarked) [Example 1-24] | < 100 nM | 195 °C |
| O=C(Nc1cccc(-c2ccc(OC(F)(F)F)cc2)c1)Nc1cccc2c1CC(O)CC2 (centres unmarked) [Example 1-25] | < 100 nM | 210 °C |
| CN(C)c1ccc(-c2cccc(NC(=O)Nc3cccc4c3CC(O)CC4)c2)cc1 (centres unmarked) [Example 1-26] | < 100 nM | 215 °C |
| CC(=O)c1ccc(-c2cccc(NC(=O)Nc3cccc4c3CC(O)CC4)c2)cc1 (centres unmarked) [Example 1-27] | < 100 nM | 216 °C |

| Compound | IC50 (human VR1) | melting point |
| --- | --- | --- |
| O=C(Nc1cccc(-c2cccc([N+](=O)[O-])c2)c1)Nc1cccc2c1CC(O)CC2 (centres unmarked) [Example 1-28] | < 100 nM | 238 °C |
| O=C(Nc1cccc(-c2ccc(OCCN3CCOCC3)cc2)c1)Nc1cccc2c1CC(O)CC2 (centres unmarked) [Example 1-29] | < 100 nM | – |
| CN(C)c1ccc(-c2ccc(CNC(=O)Nc3cccc4c3CC(O)CC4)cc2)cc1 (centres unmarked) [Example 1-30] | < 100 nM | 205 to 206 °C |
| COc1ccc(-c2ccc(CNC(=O)Nc3cccc4c3CC(O)CC4)cc2)cc1 (centres unmarked) [Example 1-31] | < 100 nM | 215 to 216 °C |
| Cc1ccc(-c2ccc(CNC(=O)Nc3cccc4c3CC(O)CC4)cc2)cc1 (centres unmarked) [Example 1-32] | < 100 nM | 211 to 212 °C |
| O=C(NCc1ccc(-c2cccc(Cl)c2)cc1)Nc1cccc2c1CC(O)CC2 (centres unmarked) [Example 1-33] | < 100 nM | 195 to 196 °C |
| O=C(NCc1ccc(-c2cc(Cl)ccc2Cl)cc1)Nc1cccc2c1CC(O)CC2 (centres unmarked) [Example 1-34] | < 100 nM | 139 to 140 °C |
| COc1ccccc1-c1ccc(CNC(=O)Nc2cccc3c2CC(O)CC3)cc1 (centres unmarked) [Example 1-35] | < 100 nM | 128 to 129 °C |
| COc1ccc(OC)c(-c2ccc(CNC(=O)Nc3cccc4c3CC(O)CC4)cc2)c1 (centres unmarked) [Example 1-36] | < 100 nM | 113 to 114 °C |
| Cc1ccc(C)c(-c2ccc(CNC(=O)Nc3cccc4c3CC(O)CC4)cc2)c1 (centres unmarked) [Example 1-37] | < 100 nM | 181 to 182 °C |
| O=C(NCc1ccc(-c2cccc(F)c2)cc1)Nc1cccc2c1CC(O)CC2 (centres unmarked) [Example 1-38] | < 100 nM | 191 to 192 °C |
| O=C(NCc1ccc(-c2cccc(OC(F)(F)F)c2)cc1)Nc1cccc2c1CC(O)CC2 (centres unmarked) [Example 1-39] | < 100 nM | 218 to 219 °C |
| O=C(NCc1ccc(-c2ccc(Cl)cc2Cl)cc1)Nc1cccc2c1CC(O)CC2 (centres unmarked) [Example 1-40] | < 100 nM | 177 to 178 °C |
| O=C(NCc1ccc(-c2ccc(F)c(F)c2)cc1)Nc1cccc2c1CC(O)CC2 (centres unmarked) [Example 1-41] | < 100 nM | 191 to 192 °C |
| O=C(NCc1ccc(-c2ccc(F)c(Cl)c2)cc1)Nc1cccc2c1CC(O)CC2 (centres unmarked) [Example 1-42] | < 100 nM | 205 to 206 °C |
| O=C(NCc1ccc(-c2ccc(OC(F)(F)F)cc2)cc1)Nc1cccc2c1CC(O)CC2 (centres unmarked) [Example 1-43] | < 100 nM | 199 to 200 °C |
| O=C(NCc1ccc(-c2cccc(C(F)(F)F)c2)cc1)Nc1cccc2c1CC(O)CC2 (centres unmarked) [Example 1-44] | < 100 nM | 196 to 197 °C |
| O=C(NCc1ccc(-c2ccc(F)cc2)cc1)Nc1cccc2c1CC(O)CC2 (centres unmarked) [Example 1-45] | < 100 nM | 201 to 202 °C |
| CSc1ccc(-c2ccc(CNC(=O)Nc3cccc4c3CC(O)CC4)cc2)cc1 (centres unmarked) [Example 1-46] | < 100 nM | 216 to 217 °C |
| COc1ccc(-c2ccc(CNC(=O)Nc3cccc4c3CC(O)CC4)cc2)cc1OC (centres unmarked) [Example 1-47] | 500 to 1000 nM | 205 to 206 °C |
| O=C(NCc1ccc(-c2ccccc2F)cc1)Nc1cccc2c1CC(O)CC2 (centres unmarked) [Example 1-48] | < 100 nM | 187 to 188 °C |
| O=C(NCc1ccc(-c2ccc(F)cc2F)cc1)Nc1cccc2c1CC(O)CC2 (centres unmarked) [Example 1-49] | < 100 nM | 191 to 192 °C |
| O=C(NCc1ccc(-c2c(F)cccc2F)cc1)Nc1cccc2c1CC(O)CC2 (centres unmarked) [Example 1-50] | < 100 nM | 204 to 205 °C |
| Cc1cc(C)cc(-c2ccc(CNC(=O)Nc3cccc4c3CC(O)CC4)cc2)c1 (centres unmarked) [Example 1-51] | < 100 nM | 205 to 206 °C |
| CC(C)c1ccc(-c2ccc(CNC(=O)Nc3cccc4c3CC(O)CC4)cc2)cc1 (centres unmarked) [Example 1-52] | < 100 nM | 202 to 203 °C |
| O=C(NCc1ccc(-c2cc(Cl)cc(Cl)c2)cc1)Nc1cccc2c1CC(O)CC2 (centres unmarked) [Example 1-53] | < 100 nM | 204 to 205 °C |
| O=C(Cc1cccc(-c2ccc(F)cc2)c1)Nc1cccc2c1CC(O)CC2 (centres unmarked) [Example 3-2] | 500 to 1000 nM | – |
